Experimental data reported in ChEMBL document CHEMBL3885881, “DrugMatrix”.

Species: Rattus norvegicus
Experiment: DrugMatrix - Regimen: Daily Repeat
Assay type: toxicity, organism-based, Sprague-Dawley
Parameters: regimen Daily Repeat, gender Male, age 6-8 weeks
Details: in vivo, po, route oral GAVAGE, vehicle .5 % CMC; for ABSOLUTE BASOPHIL / ABSOLUTE EOSINOPHIL / ABSOLUTE LYMPHOCYTE / ABSOLUTE MONOCYTE / ABSOLUTE SEGMENTED NEUTROPHIL / BASOPHIL / EOSINOPHIL / ERYTHROCYTE COUNT / HEMATOCRIT / HEMOGLOBIN / LEUKOCYTE COUNT / LYMPHOCYTE / MEAN CORPUSCULAR HEMOGLOBIN / MEAN CORPUSCULAR HEMOGLOBIN CONCENTRATION / MEAN CORPUSCULAR VOLUME / MONOCYTE / NEUTROPHIL / NUCLEATED RED BLOOD CELLS / PLATELET COUNT: tissue Blood; for ALANINE AMINOTRANSFERASE / ALBUMIN / ALKALINE PHOSPHATASE / ASPARTATE AMINOTRANSFERASE / BLOOD UREA NITROGEN / CARBON DIOXIDE / CHLORIDE / CHOLESTEROL / CREATINE PHOSPHOKINASE / CREATININE / GLUCOSE / LACTATE DEHYDROGENASE / LIPASE / PHOSPHORUS / POTASSIUM / SODIUM / TOTAL BILIRUBIN / TOTAL PROTEIN / URIC ACID: tissue Plasma
[1] = 80 mg/kg, 72 h, dose level Low, time 3 day
[2] = 80 mg/kg, 120 h, dose level Low, time 5 day
[3] = 1500 mg/kg, 72 h, dose level High, time 3 day
[4] = 1500 mg/kg, 120 h, dose level High, time 5 day

SMILES: O=c1cnn([C@@H]2O[C@H](CO)[C@@H](O)[C@H]2O)c(=O)[nH]1 [6-AZAURIDINE]
- ABSOLUTE BASOPHIL [1]: 0 CELLS/uL
- ABSOLUTE EOSINOPHIL [1]: 0 CELLS/uL
- ABSOLUTE LYMPHOCYTE [1]: 15386 CELLS/uL
- ABSOLUTE MONOCYTE [1]: 95.33 CELLS/uL
- ABSOLUTE SEGMENTED NEUTROPHIL [1]: 852 CELLS/uL
- BASOPHIL [1]: 0%
- EOSINOPHIL [1]: 0%
- ERYTHROCYTE COUNT [1]: 5.24 x10E6/uL
- HEMATOCRIT [1]: 34.9%
- HEMOGLOBIN [1]: 13.33 G/DL
- LEUKOCYTE COUNT [1]: 16.33 x10E3/uL
- LYMPHOCYTE [1]: 94%
- MEAN CORPUSCULAR HEMOGLOBIN [1]: 25.47 pg
- MEAN CORPUSCULAR HEMOGLOBIN CONCENTRATION [1]: 38.2 G/DL
- MEAN CORPUSCULAR VOLUME [1]: 66.6 fL
- MONOCYTE [1]: 0.67%
- NEUTROPHIL [1]: 5.33%
- NUCLEATED RED BLOOD CELLS [1]: 0.33 /100WBC
- PLATELET COUNT [1]: 1177.67 x10E3/uL
- ALANINE AMINOTRANSFERASE [1]: 32.67 u/L
- ALBUMIN [1]: 4.23 G/DL
- ALKALINE PHOSPHATASE [1]: 410.67 u/L
- ASPARTATE AMINOTRANSFERASE [1]: 74.33 u/L
- BLOOD UREA NITROGEN [1]: 15.33 mg/dL
- CARBON DIOXIDE [1]: 25 mmol/L
- CHLORIDE [1]: 106.67 MEQ/L
- CHOLESTEROL [1]: 73.67 mg/dL
- CREATINE PHOSPHOKINASE [1]: 134.33 u/L
- CREATININE [1]: 0.2 mg/dL
- GLUCOSE [1]: 173.33 mg/dL
- LACTATE DEHYDROGENASE [1]: 86.67 u/L
- LIPASE [1]: 10.33 u/L
- PHOSPHORUS [1]: 12.67 mg/dL
- POTASSIUM [1]: 6.8 MEQ/L
- SODIUM [1]: 148.73 MEQ/L
- TOTAL BILIRUBIN [1]: 0.2 mg/dL
- TOTAL PROTEIN [1]: 5.93 G/DL
- URIC ACID [1]: 1.7 mg/dL
- ABSOLUTE BASOPHIL [2]: 0 CELLS/uL
- ABSOLUTE EOSINOPHIL [2]: 0 CELLS/uL
- ABSOLUTE LYMPHOCYTE [2]: 12013.67 CELLS/uL
- ABSOLUTE MONOCYTE [2]: 153.67 CELLS/uL
- ABSOLUTE SEGMENTED NEUTROPHIL [2]: 1099.33 CELLS/uL
- BASOPHIL [2]: 0%
- EOSINOPHIL [2]: 0%
- ERYTHROCYTE COUNT [2]: 5.94 x10E6/uL
- HEMATOCRIT [2]: 37.2%
- HEMOGLOBIN [2]: 13.73 G/DL
- LEUKOCYTE COUNT [2]: 13.27 x10E3/uL
- LYMPHOCYTE [2]: 90.67%
- MEAN CORPUSCULAR HEMOGLOBIN [2]: 23.2 pg
- MEAN CORPUSCULAR HEMOGLOBIN CONCENTRATION [2]: 36.93 G/DL
- MEAN CORPUSCULAR VOLUME [2]: 62.77 fL
- MONOCYTE [2]: 1.33%
- NEUTROPHIL [2]: 8%
- NUCLEATED RED BLOOD CELLS [2]: 0.33 /100WBC
- PLATELET COUNT [2]: 1474.67 x10E3/uL
- ALANINE AMINOTRANSFERASE [2]: 38 u/L
- ALBUMIN [2]: 4.23 G/DL
- ALKALINE PHOSPHATASE [2]: 363.67 u/L
- ASPARTATE AMINOTRANSFERASE [2]: 88.33 u/L
- BLOOD UREA NITROGEN [2]: 20.33 mg/dL
- CARBON DIOXIDE [2]: 22 mmol/L
- CHLORIDE [2]: 104.33 MEQ/L
- CHOLESTEROL [2]: 68 mg/dL
- CREATINE PHOSPHOKINASE [2]: 230.33 u/L
- CREATININE [2]: 0.22 mg/dL
- GLUCOSE [2]: 166.67 mg/dL
- LACTATE DEHYDROGENASE [2]: 119.33 u/L
- LIPASE [2]: 10.33 u/L
- PHOSPHORUS [2]: 13.2 mg/dL
- POTASSIUM [2]: 6.55 MEQ/L
- SODIUM [2]: 146.7 MEQ/L
- TOTAL BILIRUBIN [2]: 0.13 mg/dL
- TOTAL PROTEIN [2]: 6.17 G/DL
- URIC ACID [2]: 2.23 mg/dL
- ABSOLUTE BASOPHIL [3]: 0 CELLS/uL
- ABSOLUTE EOSINOPHIL [3]: 0 CELLS/uL
- ABSOLUTE LYMPHOCYTE [3]: 9340.33 CELLS/uL
- ABSOLUTE MONOCYTE [3]: 29.33 CELLS/uL
- ABSOLUTE SEGMENTED NEUTROPHIL [3]: 363.67 CELLS/uL
- BASOPHIL [3]: 0%
- EOSINOPHIL [3]: 0%
- ERYTHROCYTE COUNT [3]: 5.26 x10E6/uL
- HEMATOCRIT [3]: 32.03%
- HEMOGLOBIN [3]: 12.07 G/DL
- LEUKOCYTE COUNT [3]: 9.73 x10E3/uL
- LYMPHOCYTE [3]: 96%
- MEAN CORPUSCULAR HEMOGLOBIN [3]: 22.9 pg
- MEAN CORPUSCULAR HEMOGLOBIN CONCENTRATION [3]: 37.7 G/DL
- MEAN CORPUSCULAR VOLUME [3]: 60.9 fL
- MONOCYTE [3]: 0.33%
- NEUTROPHIL [3]: 3.67%
- NUCLEATED RED BLOOD CELLS [3]: 0 /100WBC
- PLATELET COUNT [3]: 1317.67 x10E3/uL
- ALANINE AMINOTRANSFERASE [3]: 17.33 u/L
- ALBUMIN [3]: 4.3 G/DL
- ALKALINE PHOSPHATASE [3]: 341 u/L
- ASPARTATE AMINOTRANSFERASE [3]: 104.67 u/L
- BLOOD UREA NITROGEN [3]: 15.33 mg/dL
- CARBON DIOXIDE [3]: 18.67 mmol/L
- CHLORIDE [3]: 104.33 MEQ/L
- CHOLESTEROL [3]: 69.33 mg/dL
- CREATINE PHOSPHOKINASE [3]: 704 u/L
- CREATININE [3]: 0.25 mg/dL
- GLUCOSE [3]: 179.67 mg/dL
- LACTATE DEHYDROGENASE [3]: 167.67 u/L
- LIPASE [3]: 10 u/L
- PHOSPHORUS [3]: 12.03 mg/dL
- POTASSIUM [3]: 6.43 MEQ/L
- SODIUM [3]: 147.5 MEQ/L
- TOTAL BILIRUBIN [3]: 0.2 mg/dL
- TOTAL PROTEIN [3]: 5.87 G/DL
- URIC ACID [3]: 1.67 mg/dL
- ABSOLUTE BASOPHIL [4]: 0 CELLS/uL
- ABSOLUTE EOSINOPHIL [4]: 44.67 CELLS/uL
- ABSOLUTE LYMPHOCYTE [4]: 13100 CELLS/uL
- ABSOLUTE MONOCYTE [4]: 44.67 CELLS/uL
- ABSOLUTE SEGMENTED NEUTROPHIL [4]: 1177.33 CELLS/uL
- BASOPHIL [4]: 0%
- EOSINOPHIL [4]: 0.33%
- ERYTHROCYTE COUNT [4]: 4.96 x10E6/uL
- HEMATOCRIT [4]: 30%
- HEMOGLOBIN [4]: 11.57 G/DL
- LEUKOCYTE COUNT [4]: 14.37 x10E3/uL
- LYMPHOCYTE [4]: 91%
- MEAN CORPUSCULAR HEMOGLOBIN [4]: 23.37 pg
- MEAN CORPUSCULAR HEMOGLOBIN CONCENTRATION [4]: 38.53 G/DL
- MEAN CORPUSCULAR VOLUME [4]: 60.57 fL
- MONOCYTE [4]: 0.33%
- NEUTROPHIL [4]: 8.33%
- NUCLEATED RED BLOOD CELLS [4]: 0 /100WBC
- PLATELET COUNT [4]: 1665.67 x10E3/uL
- ALANINE AMINOTRANSFERASE [4]: 14.33 u/L
- ALBUMIN [4]: 3.5 G/DL
- ALKALINE PHOSPHATASE [4]: 153 u/L
- ASPARTATE AMINOTRANSFERASE [4]: 98.33 u/L
- BLOOD UREA NITROGEN [4]: 16.33 mg/dL
- CARBON DIOXIDE [4]: 33 mmol/L
- CHLORIDE [4]: 105.33 MEQ/L
- CHOLESTEROL [4]: 68.67 mg/dL
- CREATINE PHOSPHOKINASE [4]: 888.33 u/L
- CREATININE [4]: 0.12 mg/dL
- GLUCOSE [4]: 159 mg/dL
- LACTATE DEHYDROGENASE [4]: 129 u/L
- LIPASE [4]: 9.33 u/L
- PHOSPHORUS [4]: 11.03 mg/dL
- POTASSIUM [4]: 6.72 MEQ/L
- SODIUM [4]: 145.83 MEQ/L
- TOTAL BILIRUBIN [4]: 0.2 mg/dL
- TOTAL PROTEIN [4]: 4.83 G/DL
- URIC ACID [4]: 1.5 mg/dL
